Assay results taken from the supplement of paper PMC10627819.

Columns and labels:
B. subtilis 168 [1] = experiment: fitness (endpoint OD595 vs no drug) (fraction); higher = more growth
How it was run: (§1)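 Fitness is computed from the optical density at which cultures reach stationary phase, divided by the robust mean of no-drug control wells. Any value above 1 is set to 1. Cultures started at OD595 0.01 in 384-well plates with TSB, LB Lennox or CY at 37 °C, and OD595 was read every 30 min for 14 h against a first-reading background.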

S. aureus Newman [2] = experiment: as above
How it was run: as §1

B. subtilis 168 [3] = experiment: Bliss interaction score (quartile over a dose matrix) (fitness difference); higher = more antagonism (negative = synergy)
How it was run: (§2)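 Fitness here means normalised growth, inferred for single drugs from the combination data. Growth was OD595 at entry into stationary phase, divided by the plate's robust no-drug mean and capped at 1. The Bliss score is observed minus expected fitness, with the expectation being the product, and its quartiles span technical, biological and donor/recipient replicates.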

S. aureus DSM 20231 = experiment: as above
How it was run: as §2

S. aureus Newman [4] = experiment: as above
How it was run: as §2

S. pneumoniae D39V [5] = experiment: as above
How it was run: as §2

S. pneumoniae D39V [6] = experiment: fitness (endpoint OD595 vs no drug) (fraction); higher = more growth
How it was run: as §1
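Wherever Bliss interaction score (quartile over a dose matrix) is given: first quartile when negative (synergy) and third quartile when positive (antagonism).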
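Wherever fitness (endpoint OD595 vs no drug) is given: OD595 on entry to stationary phase over no-drug wells; at most 1.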

CO/N=C(\C(=O)N[C@@H]1C(=O)N2C(C(=O)O)=C(COC(N)=O)CS[C@H]12)c1ccco1 [Cefuroxime] + CN[C@@H]1[C@H](O)[C@H](NC)[C@H]2O[C@@]3(O)C(=O)C[C@@H](C)O[C@H]3O[C@@H]2[C@H]1O [Spectinomycin]
fitness, B. subtilis 168 [1]
Conditions | first compound 0.04875 µg/mL | first compound 0.0975 µg/mL | first compound 0.195 µg/mL
partner 2 µg/mL | 0.717 | 0.667 | 0.55
partner 4 µg/mL | 0.799 | 0.645 | 0.569

fitness, one replicate
Conditions | first compound 0.04875 µg/mL | first compound 0.0975 µg/mL | first compound 0.195 µg/mL | first compound 1.562 µg/mL | first compound 3.125 µg/mL | first compound 6.25 µg/mL
B. subtilis 168 [1], partner 2 µg/mL | – | – | – | 0.3 | 0.171 | 0.134
B. subtilis 168 [1], partner 4 µg/mL | – | – | – | 0.234 | 0.0263 | 0.0348
B. subtilis 168 [1], partner 8 µg/mL | – | – | – | 0.0211 | 0 | 0.0048
S. aureus Newman [2], partner 4 µg/mL | 0.932 | 0.971 | 0.9 | – | – | –
S. aureus Newman [2], partner 8 µg/mL | 0.943 | 0.96 | 0.877 | – | – | –
S. aureus Newman [2], partner 16 µg/mL | 0.94 | 0.918 | 0.84 | – | – | –

Conditions | Bliss interaction score
B. subtilis 168 [3] | -0.0976
S. aureus DSM 20231 | 0.116
S. aureus Newman [4] | 0.127
S. pneumoniae D39V [5] | 0.0427

COc1ccc(C[C@H](N)C(=O)N[C@H]2[C@@H](O)[C@H](n3cnc4c(N(C)C)ncnc43)O[C@@H]2CO)cc1 [Puromycin] + CN[C@@H]1[C@H](O[C@H]2[C@H](O[C@H]3[C@H](O)[C@@H](O)[C@H](N=C(N)N)[C@@H](O)[C@@H]3N=C(N)N)O[C@@H](C)[C@]2(O)C=O)O[C@@H](CO)[C@H](O)[C@H]1O [Streptomycin]
fitness
Conditions | first compound 0.39 µg/mL | first compound 0.78 µg/mL | first compound 1 µg/mL | first compound 1.56 µg/mL | first compound 2 µg/mL | first compound 4 µg/mL
B. subtilis 168 [1], partner 2 µg/mL | 0.908 | 0.878 | – | 0.796 | – | –
B. subtilis 168 [1], partner 4 µg/mL | 0.27 | 0.143 | – | 0.106 | – | –
B. subtilis 168 [1], partner 8 µg/mL | 0.0282 | 0.0233 | – | 0.0357 | – | –
S. aureus Newman [2], partner 1 µg/mL | ≥ 1 | 0.968 | – | 0.991 | – | –
S. aureus Newman [2], partner 2 µg/mL | ≥ 1 | 0.964 | – | 0.939 | – | –
S. pneumoniae D39V [6], partner 2 µg/mL | – | – | 0.933 | – | 0.914 | 0.739
S. pneumoniae D39V [6], partner 4 µg/mL | – | – | 0.956 | – | 0.906 | 0.746
S. pneumoniae D39V [6], partner 8 µg/mL | – | – | 0.876 | – | 0.784 | 0.567

S. pneumoniae D39V [6], partner 16 µg/mL, one replicate
Conditions | fitness
first compound 1 µg/mL | 0.748
first compound 2 µg/mL | 0.643
first compound 4 µg/mL | 0.254

Conditions | Bliss interaction score
B. subtilis 168 [3] | -0.226
S. aureus DSM 20231 | -0.193
S. aureus Newman [4] | 0.0431
S. pneumoniae D39V [5] | -0.0971

CO/N=C(\C(=O)N[C@@H]1C(=O)N2C(C(=O)O)=C(COC(N)=O)CS[C@H]12)c1ccco1 [Cefuroxime] + CN[C@@H]1[C@H](O[C@H]2[C@H](O[C@H]3[C@H](O)[C@@H](O)[C@H](N=C(N)N)[C@@H](O)[C@@H]3N=C(N)N)O[C@@H](C)[C@]2(O)C=O)O[C@@H](CO)[C@H](O)[C@H]1O [Streptomycin]
fitness, B. subtilis 168 [1]
Conditions | first compound 0.04875 µg/mL | first compound 0.0975 µg/mL | first compound 0.195 µg/mL | first compound 1.562 µg/mL | first compound 3.125 µg/mL | first compound 6.25 µg/mL
partner 2 µg/mL | 0.722 | 0.664 | 0.6 | 0.132 | 0.088 | 0.0549
partner 4 µg/mL | – | – | 0.164 | 0.0266 | 0.015 | 0.0149
partner 8 µg/mL | 0.0543 | 0.0254 | 0.0361 | 0.032 | 0.0257 | 0.0148

fitness, S. aureus Newman [2], one replicate
Conditions | first compound 0.04875 µg/mL | first compound 0.0975 µg/mL | first compound 0.195 µg/mL
partner 2 µg/mL | 0.826 | 0.746 | 0.814
partner 4 µg/mL | 0.944 | ≥ 1 | 0.781
partner 8 µg/mL | 0.994 | 0.963 | 0.81

Conditions | Bliss interaction score
B. subtilis 168 [3] | -0.123
S. aureus DSM 20231 | -0.357
S. aureus Newman [4] | 0.335
S. pneumoniae D39V [5] | 0.0384

CO/N=C(\C(=O)N[C@@H]1C(=O)N2C(C(=O)O)=C(COC(N)=O)CS[C@H]12)c1ccco1 [Cefuroxime] + Cc1ncc([N+](=O)[O-])n1CCO [Metronidazole]
fitness, B. subtilis 168 [1]
Conditions | partner 0.625 µg/mL | partner 1.25 µg/mL | partner 2.5 µg/mL
first compound 0.04875 µg/mL | 0.741 | 0.767 | 0.715
first compound 0.195 µg/mL | 0.547 | 0.515 | 0.497

fitness, one replicate
Conditions | first compound 0.04875 µg/mL | first compound 0.0975 µg/mL | first compound 0.195 µg/mL | first compound 1.562 µg/mL | first compound 3.125 µg/mL | first compound 6.25 µg/mL
B. subtilis 168 [1], partner 0.625 µg/mL | – | – | – | 0.428 | 0.372 | 0.251
B. subtilis 168 [1], partner 1.25 µg/mL | – | – | – | 0.376 | 0.268 | 0.242
B. subtilis 168 [1], partner 2.5 µg/mL | – | – | – | 0.287 | 0.219 | 0.15
S. aureus Newman [2], partner 0.625 µg/mL | ≥ 1 | 0.897 | 0.943 | – | – | –
S. aureus Newman [2], partner 1.25 µg/mL | 0.923 | 0.939 | 0.978 | – | – | –
S. aureus Newman [2], partner 2.5 µg/mL | 0.993 | 0.918 | 0.921 | – | – | –

Conditions | Bliss interaction score
B. subtilis 168 [3] | 0.0643
S. aureus DSM 20231 | 0.132
S. aureus Newman [4] | -0.0487
S. pneumoniae D39V [5] | -0.0335

CO/N=C(\C(=O)N[C@@H]1C(=O)N2C(C(=O)O)=C(COC(C)=O)CS[C@H]12)c1csc(N)n1 [Cefotaxime] + CO/N=C(\C(=O)N[C@@H]1C(=O)N2C(C(=O)O)=C(COC(N)=O)CS[C@H]12)c1ccco1 [Cefuroxime]
one replicate
Conditions | fitness
B. subtilis 168 [1], first compound 0.00775 µg/mL, partner 0.195 µg/mL | 0.236
B. subtilis 168 [1], first compound 0.00775 µg/mL, partner 0.39 µg/mL | 0.194
B. subtilis 168 [1], first compound 0.00775 µg/mL, partner 0.78 µg/mL | 0.147
B. subtilis 168 [1], first compound 0.0155 µg/mL, partner 0.195 µg/mL | 0.172
B. subtilis 168 [1], first compound 0.0155 µg/mL, partner 0.39 µg/mL | 0.121
B. subtilis 168 [1], first compound 0.0155 µg/mL, partner 0.78 µg/mL | 0.0786
B. subtilis 168 [1], first compound 0.031 µg/mL, partner 0.195 µg/mL | 0.176
B. subtilis 168 [1], first compound 0.031 µg/mL, partner 0.39 µg/mL | 0.138
B. subtilis 168 [1], first compound 0.031 µg/mL, partner 0.78 µg/mL | 0.0789
B. subtilis 168 [1], first compound 0.0625 µg/mL, partner 0.04875 µg/mL | 0.421
B. subtilis 168 [1], first compound 0.0625 µg/mL, partner 0.0975 µg/mL | 0.492
B. subtilis 168 [1], first compound 0.0625 µg/mL, partner 0.195 µg/mL | 0.329
B. subtilis 168 [1], first compound 0.125 µg/mL, partner 0.04875 µg/mL | 0.41
B. subtilis 168 [1], first compound 0.125 µg/mL, partner 0.0975 µg/mL | 0.444
B. subtilis 168 [1], first compound 0.125 µg/mL, partner 0.195 µg/mL | 0.331
B. subtilis 168 [1], first compound 0.25 µg/mL, partner 0.04875 µg/mL | 0.354
B. subtilis 168 [1], first compound 0.25 µg/mL, partner 0.0975 µg/mL | 0.451
B. subtilis 168 [1], first compound 0.25 µg/mL, partner 0.195 µg/mL | 0.305
B. subtilis 168 [1], first compound 0.5 µg/mL, partner 0.04875 µg/mL | 0.0782
B. subtilis 168 [1], first compound 0.5 µg/mL, partner 0.0975 µg/mL | 0.0682
B. subtilis 168 [1], first compound 0.5 µg/mL, partner 0.195 µg/mL | 0.0838
B. subtilis 168 [1], first compound 0.5 µg/mL, partner 1.562 µg/mL | 0.308
B. subtilis 168 [1], first compound 0.5 µg/mL, partner 3.125 µg/mL | 0.286
B. subtilis 168 [1], first compound 0.5 µg/mL, partner 6.25 µg/mL | 0.261
B. subtilis 168 [1], first compound 1 µg/mL, partner 0.04875 µg/mL | 0.0681
B. subtilis 168 [1], first compound 1 µg/mL, partner 0.0975 µg/mL | 0.0388
B. subtilis 168 [1], first compound 1 µg/mL, partner 0.195 µg/mL | 0.0517
B. subtilis 168 [1], first compound 1 µg/mL, partner 1.562 µg/mL | 0.139
B. subtilis 168 [1], first compound 1 µg/mL, partner 3.125 µg/mL | 0.1
B. subtilis 168 [1], first compound 1 µg/mL, partner 6.25 µg/mL | 0.114
B. subtilis 168 [1], first compound 2 µg/mL, partner 0.04875 µg/mL | 0.0589
B. subtilis 168 [1], first compound 2 µg/mL, partner 0.0975 µg/mL | 0.0337
B. subtilis 168 [1], first compound 2 µg/mL, partner 0.195 µg/mL | 0.0469
B. subtilis 168 [1], first compound 2 µg/mL, partner 1.562 µg/mL | 0.161
B. subtilis 168 [1], first compound 2 µg/mL, partner 3.125 µg/mL | 0.138
B. subtilis 168 [1], first compound 2 µg/mL, partner 6.25 µg/mL | 0.0944
S. aureus Newman [2], first compound 0.078 µg/mL, partner 0.04875 µg/mL | 0.834
S. aureus Newman [2], first compound 0.078 µg/mL, partner 0.0975 µg/mL | 0.798
S. aureus Newman [2], first compound 0.078 µg/mL, partner 0.195 µg/mL | 0.84
S. aureus Newman [2], first compound 0.156 µg/mL, partner 0.04875 µg/mL | 0.698
S. aureus Newman [2], first compound 0.156 µg/mL, partner 0.0975 µg/mL | 0.574
S. aureus Newman [2], first compound 0.156 µg/mL, partner 0.195 µg/mL | 0.596
S. aureus Newman [2], first compound 0.312 µg/mL, partner 0.04875 µg/mL | 0.384
S. aureus Newman [2], first compound 0.312 µg/mL, partner 0.0975 µg/mL | 0.295
S. aureus Newman [2], first compound 0.312 µg/mL, partner 0.195 µg/mL | 0.237

Conditions | Bliss interaction score
B. subtilis 168 [3] | 0.0852
S. aureus DSM 20231 | 0.107
S. aureus Newman [4] | -0.0451
S. pneumoniae D39V [5] | -0.0369
